Experimental data as given in US20240116985A1, “STAPLED PEPTIDES AND METHODS THEREOF” (priority 2020, published 2024).
Where two headings read alike, the source gives them in different places.

Assays:
[1] = target: T1, full-length beta-Catenin (Uniprot ID P35222) (Homo sapiens, UniProt P35222); test: Fluorescence polarization IC50 (beta-catenin / 5FAM-TCF4 10-53 competition); type: binding; conditions: fluorescence polarization; read-out: beta-Catenin FP IC50
T1 construct: 10 nM full-length beta-Catenin (Uniprot ID P35222)
T1 sequence (P35222 1-781): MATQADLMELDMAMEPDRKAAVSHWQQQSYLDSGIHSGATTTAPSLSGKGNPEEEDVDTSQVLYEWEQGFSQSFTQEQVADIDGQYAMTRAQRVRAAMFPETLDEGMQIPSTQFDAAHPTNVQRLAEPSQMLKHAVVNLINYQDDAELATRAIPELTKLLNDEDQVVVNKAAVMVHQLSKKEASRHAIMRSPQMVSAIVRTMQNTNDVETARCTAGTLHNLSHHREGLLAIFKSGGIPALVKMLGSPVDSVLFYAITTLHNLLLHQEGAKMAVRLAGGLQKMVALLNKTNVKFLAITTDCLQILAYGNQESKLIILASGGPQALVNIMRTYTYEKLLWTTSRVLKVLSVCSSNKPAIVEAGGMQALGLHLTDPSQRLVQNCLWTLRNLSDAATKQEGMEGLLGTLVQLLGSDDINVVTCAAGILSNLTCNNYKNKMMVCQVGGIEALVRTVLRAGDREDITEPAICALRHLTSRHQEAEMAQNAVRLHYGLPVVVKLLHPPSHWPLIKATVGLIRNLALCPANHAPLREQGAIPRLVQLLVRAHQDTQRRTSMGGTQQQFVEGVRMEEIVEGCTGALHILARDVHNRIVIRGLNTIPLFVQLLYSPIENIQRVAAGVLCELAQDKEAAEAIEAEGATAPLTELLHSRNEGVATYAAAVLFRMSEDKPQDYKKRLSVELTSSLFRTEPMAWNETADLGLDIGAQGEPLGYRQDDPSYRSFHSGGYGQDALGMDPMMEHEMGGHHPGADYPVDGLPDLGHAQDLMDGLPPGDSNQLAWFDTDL

[2] = target: T2, beta-catenin/TCF4 engagement (Homo sapiens, UniProt P35222); test: Nano-BRET target engagement assay (B-cat-Halo & TCF4-Luc in HEK293 cells); type: cell-based; conditions: read-out: NanoBRET Abs IC50
T2 construct: expressed in transfected cells; host or cells: HEK293
T2 sequence (P35222 1-781): T1 sequence (P35222 1-781)

Row | Structure (SMILES) | IC50 [1] | IC50 ([2]; absolute IC50) | IC50 [2]
1 | CC(=O)N1CCC[C@]12CC=CCCCC1(CCCC=CCCCOC(=O)N3CC[C@@](C(=O)N[C@@H](Cc4ccccc4Cl)C(=O)N[C@@H](Cc4csc5ccccc45)C(=O)N[C@@H](CCC(N)=O)C(N)=O)(C3)NC(=O)[C@H]([C@@H](C)O)NC(=O)[C@H](Cc3ccccc3)NC(=O)[C@H](C)NC(=O)C(C)(C)NC(=O)[C@H](CN(CC(=O)O)CC(F)(F)F)NC(=O)[C@H](CC(=O)O)NC1=O)NC(=O)[C@H](CC(C)(C)C)NC(=O)[C@H](CC(=O)O)NC2=O (stereo partly drawn) [I-1693, Ac-PL3-Asp-Npg-B5-Asp-TfeGA-Aib-Ala-Phe-Thr-PyrS2-2C1F-BztA-Gln-NH2] | 0.01 µM | 4.6 µM | 
2 | CC(=O)N1CCC[C@]12CCCCCCC1(CCCCCCCOC(=O)N3CC[C@@](C(=O)N[C@@H](Cc4ccsc4)C(=O)N[C@@H](Cc4csc5ccccc45)C(=O)N[C@@H](CCC(N)=O)C(N)=O)(C3)NC(=O)[C@H](CC(C)C)NC(=O)[C@H](Cc3ccccc3)NC(=O)[C@H](C)NC(=O)[C@H](C)NC(=O)[C@H](CC(=O)O)NC(=O)[C@H](CC(=O)O)NC1=O)NC(=O)[C@H](CC(C)(C)C)NC(=O)[C@H](CC(=O)O)NC2=O (stereo partly drawn) [I-1822, Ac-PL3-Asp-Npg-B5-Asp-Asp-Ala-Ala-Phe-Leu-PyrS1-3Thi-BztA-Gln-NH2] | 0.06 µM | > 20 µM | 
3 | CC(=O)N1CCC[C@]12CC=CCCCC1(CCCC=CCCCOC(=O)N3CCC(C(=O)N[C@@H](Cc4ccsc4)C(=O)N[C@@H](Cc4csc5ccccc45)C(=O)N[C@@H](C)C(N)=O)(CC3)NC(=O)[C@H](CC(C)C)NC(=O)[C@H](Cc3ccccc3)NC(=O)[C@H](C)NC(=O)[C@H](CCC(N)=O)NC(=O)[C@H](Cc3cccc(C(=O)O)c3)NC(=O)[C@H](CC(=O)O)NC1=O)NC(=O)[C@H](CC(C)(C)C)NC(=O)[C@H](CC(=O)O)NC2=O (stereo partly drawn) [I-2593, Ac-PL3-Asp-Npg-B5-Asp-3COOHF-Gln-Ala-Phe-Leu-SPip2-3Thi-BztA-Ala-NH2] | 0.027 µM |  | 29.4 µM
4 | CC(=O)N1CCC[C@]12CC=CCCCC1(CCCC=CCCCOC(=O)N3CC[C@@](C(=O)N[C@@H](Cc4ccccc4C(F)(F)F)C(=O)N[C@@H](Cc4csc5ccccc45)C(=O)N[C@@H](CCC(N)=O)C(N)=O)(C3)NC(=O)[C@H](CC(C)C)NC(=O)[C@H](Cc3ccccc3)NC(=O)[C@H](C)NC(=O)[C@H](C)NC(=O)[C@H](Cc3cc(C(=O)O)cc(C(C)C)c3)NC(=O)[C@H](CC(=O)O)NC1=O)NC(=O)[C@H](CC(C)(C)C)NC(=O)[C@H](CC(=O)O)NC2=O (stereo partly drawn) [I-2430, Ac-PL3-Asp-Npg-B5-Asp-5iPr3COOHF-Ala-Ala-Phe-Leu-PyrS2-2F3MeF-BztA-Gln-NH2] | 0.032 µM | 4.5 µM | 
5 | CC(=O)N1CCC[C@]12CCCCCCC1(CCCCCCCCCCC[C@@](C)(C(=O)N[C@@H](Cc3ccsc3)C(=O)N[C@@H](Cc3csc4ccccc34)C(=O)N[C@@H](CCC(N)=O)C(N)=O)NC(=O)[C@H](CC(C)C)NC(=O)[C@H](Cc3ccccc3)NC(=O)[C@H](C)NC(=O)[C@H](C)NC(=O)[C@H](CN(CC(=O)O)CC(F)(F)F)NC(=O)[C@H](CC(=O)O)NC1=O)NC(=O)[C@H](CC(C)(C)C)NC(=O)[C@H](CC(=O)O)NC2=O (stereo partly drawn) [I-1698, Ac-PL3-Asp-Npg-B5-Asp-TfeGA-Ala-Ala-Phe-Leu-S8-3Thi-BztA-Gln-NH2] | 0.165 µM | > 20 µM | 
6 | CC(=O)N1CCC[C@]12CC=CCCCC1(CCCC=CCCCOC(=O)N3CC[C@@](C(=O)N[C@@H](Cc4ccsc4)C(=O)N[C@@H](Cc4csc5ccccc45)C(=O)N[C@@H](CCC(N)=O)C(N)=O)(C3)NC(=O)[C@H](CC(=O)N3CCOCC3)NC(=O)[C@H](Cc3ccccc3)NC(=O)[C@H](C)NC(=O)[C@H](C)NC(=O)[C@H](CC(=O)O)NC(=O)[C@H](CC(=O)O)NC1=O)NC(=O)[C@H](CC(C)(C)C)NC(=O)[C@H](CC(=O)O)NC2=O (stereo partly drawn) [I-1487, Ac-PL3-Asp-Npg-B5-Asp-Asp-Ala-Ala-Phe-MorphAsn-PyrS2-3Thi-BztA-Gln-NH2] | 0.007 µM | 21.5 µM | 
7 | CC(=O)N1CCC[C@]12CC=CCCCC1(CCCC=CCCCOC(=O)N3CC[C@@](C(=O)N[C@@H](Cc4ccsc4)C(=O)N[C@@H](Cc4csc5ccccc45)C(=O)N[C@@H](CCC(N)=O)C(N)=O)(C3)NC(=O)[C@H](CC(C)C)NC(=O)[C@H](Cc3ccccc3)NC(=O)[C@H](C)NC(=O)[C@H](C)NC(=O)[C@H](Cn3cc(C(C)(C)C(=O)O)nn3)NC(=O)[C@H](CC(=O)O)NC1=O)NC(=O)[C@H](CC(C)(C)C)NC(=O)[C@H](CC(=O)O)NC2=O (stereo partly drawn) [I-2085, Ac-PL3-Asp-Npg-B5-Asp-[CMe2CO2H]TriAzDap-Ala-Ala-Phe-Leu-PyrS2-3Thi-BztA-Gln-NH2] | 0.005 µM |  | 6.2 µM
8 | CC(=O)N1CCC[C@]12CC=CCCCC1(CCCC=CCCCCCC[C@@](C)(C(=O)N[C@@H](Cc3cccs3)C(=O)N[C@@H](Cc3csc4ccccc34)C(=O)N[C@@H](CCC(N)=O)C(N)=O)NC(=O)[C@H](CC(N)=O)NC(=O)[C@H](Cc3ccccc3)NC(=O)[C@H](C)NC(=O)[C@H](C)NC(=O)[C@H](CC(=O)O)NC(=O)[C@H](CC(=O)O)NC1=O)NC(=O)[C@H](CC(C)(C)C)NC(=O)[C@H](CC(=O)O)NC2=O (stereo partly drawn) [I-1391, Ac-PL3-Asp-Npg-B5-Asp-Asp-Ala-Ala-Phe-Asn-S8-2Thi-BztA-Gln-NH2] | 0.011 µM | 35 µM | 
9 | CCCC[C@@H]1NC(=O)[C@H](Cc2cccc(C(=O)O)c2)NC(=O)[C@H](CC(=O)O)NC(=O)C2(CCCC=CCCCOC(=O)N3CC[C@@](C(=O)N[C@@H](Cc4ccsc4)C(=O)N[C@@H](Cc4csc5ccccc45)C(=O)N[C@@H](Cc4ccccc4)C(N)=O)(C3)NC(=O)[C@H](CC(C)C)NC(=O)[C@H](Cc3ccccc3)NC(=O)[C@H](C)NC1=O)CCCC=CC[C@]1(CCCN1C(C)=O)C(=O)N[C@@H](CC(=O)O)C(=O)N[C@@H](CC(C)(C)C)C(=O)N2 (stereo partly drawn) [I-1913, Ac-PL3-Asp-Npg-B5-Asp-3COOHF-nLeu-Ala-Phe-Leu-PyrS2-3Thi-BztA-Phe-NH2] | 0.119 µM |  | 17.5 µM
10 | CC(=O)N1CCC[C@]12CC=CCCCC1(CCCC=CCCCOC(=O)N3CC[C@@](C(=O)N[C@@H](Cc4ccccc4Cl)C(=O)N[C@@H](Cc4csc5ccccc45)C(=O)N[C@@H](CCC(N)=O)C(N)=O)(C3)NC(=O)[C@H](CC(N)=O)NC(=O)[C@H](Cc3ccccc3)NC(=O)[C@H](C)NC(=O)[C@H](C)NC(=O)[C@H](CN(CC(=O)O)C(C)C)NC(=O)[C@H](CC(=O)O)NC1=O)NC(=O)[C@H](CC(C)(C)C)NC(=O)[C@H](CC(=O)O)NC2=O (stereo partly drawn) [I-1451, Ac-PL3-Asp-Npg-B5-Asp-[iPr]GA-Ala-Ala-Phe-Asn-PyrS2-2C1F-BztA-Gln-NH2] | 0.013 µM | 26.2 µM | 
11 | CC(=O)N1CCC[C@]12CC=CCCCC1(CCCC=CCCCOC(=O)N3CC[C@@](C(=O)N[C@@H](Cc4ccsc4)C(=O)N[C@@H](Cc4csc5ccccc45)C(=O)N[C@@H](CCC(N)=O)C(N)=O)(C3)NC(=O)[C@H](CC(C)C)NC(=O)[C@H](Cc3ccccc3)NC(=O)[C@H](C)NC(=O)[C@H](CCCCNC(C)C)NC(=O)[C@H](CCC(N)=O)NC(=O)[C@H](CC(=O)O)NC1=O)NC(=O)[C@H](CC1CCCCC1)NC(=O)[C@H](CC(N)=O)NC2=O (stereo partly drawn) [I-2446, Ac-PL3-Asn-Cha-B5-Asp-Gln-iPrLys-Ala-Phe-Leu-PyrS2-3Thi-BztA-Gln-NH2] | 0.093 µM | > 20 µM | 
12 | CC(=O)N1CCC[C@]12CC=CCCCC1(CCCC=CCCCOC(=O)N3CC[C@@](C(=O)N[C@@H](Cc4ccccc4Cl)C(=O)N[C@@H](Cc4csc5ccccc45)C(=O)N[C@@H](CCC(N)=O)C(N)=O)(C3)NC(=O)[C@H](CC(C)C)NC(=O)[C@H](Cc3ccccc3)NC(=O)[C@H](C)NC(=O)C(C)(C)NC(=O)[C@H](Cc3cccc(C(=O)O)c3)NC(=O)[C@H](CC(=O)O)NC1=O)NC(=O)[C@H](CC(C)(C)C)NC(=O)[C@H](CC(=O)O)NC2=O (stereo partly drawn) [I-1686, Ac-PL3-Asp-Npg-B5-Asp-3COOHF-Aib-Ala-Phe-Leu-PyrS2-2C1F-BztA-Gln-NH2] | 0.011 µM | 5.4 µM | 
13 | CC(=O)N1CCC[C@]12CC=CCCCC1(CCCC=CCCCOC(=O)N3CC[C@@](C(=O)N[C@@H](Cc4ccccc4C(F)(F)F)C(=O)N[C@@H](Cc4csc5ccccc45)C(=O)N[C@@H](CO)C(N)=O)(C3)NC(=O)[C@H](Cc3ccccc3)NC(=O)[C@H](Cc3ccccc3)NC(=O)[C@H](C)NC(=O)[C@H](C)NC(=O)[C@H](Cc3ccccc3C(=O)O)NC(=O)[C@H](CC(=O)O)NC1=O)NC(=O)[C@H](CC(C)(C)C)NC(=O)[C@H](CC(=O)O)NC2=O (stereo partly drawn) [I-1659, Ac-PL3-Asp-Npg-B5-Asp-2COOHF-Ala-Ala-Phe-Phe-PyrS2-2F3MeF-BztA-Ser-NH2] | 0.108 µM | 11.4 µM | 
14 | CC(=O)N1CCC[C@]12CC=CCCCC1(CCCC=CCCCOC(=O)N3CC[C@@](C(=O)N[C@@H](Cc4ccccc4Cl)C(=O)N[C@@H](Cc4csc5ccccc45)C(=O)N[C@H](C(N)=O)[C@@H](C)O)(C3)NC(=O)[C@H](CC(C)C)NC(=O)[C@H](Cc3ccccc3)NC(=O)[C@H](C)NC(=O)[C@H](C)NC(=O)[C@H](CC(=O)O)NC(=O)[C@H](CC(=O)O)NC1=O)NC(=O)[C@H](CC1CCCCC1)NC(=O)[C@H](CC(=O)O)NC2=O (stereo partly drawn) [I-1139, Ac-PL3-Asp-Cha-B5-Asp-Asp-Ala-Ala-Phe-Leu-PyrS2-2C1F-BztA-Thr-NH2] | 0.022 µM | 18 µM | 
